In patent publication US9464093B2, “Substituted imidazo[4',5':4,5]cyclopenta[1,2-e]pyrrolo[1,2-a]pyrazines and oxazolo[4',5':4,5]cyclopenta[1,2-e]pyrrolo[1,2-a]pyrazines for treating brain cancer” (Mayo Foundation for Medical Education and Research, priority 2012, dated 2016):
“Also recorded” adds a separate entry of the source.

Key:
[1] = system: MB-468 triple-negative breast cancer cells; assay: MB-468 orthotopic murine model for metastatic breast cancer of the brain; assay type: in vivo, athymic mice; conditions: for Median Survival (Day) Breast Cancer (MB-468): control 52
Experimental: (§1) Female athymic mice (8-10 weeks old and weighing 20-25 g at the beginning of the study) were purchased from Harlan laboratories (Indianapolis, Ind.). They were housed in a temperature-controlled sterilized room (23±2° C.) with a 12-h light/dark cycle and free access to food and water throughout the study.
(§2) Murine brain tumor models were created by intracerebral injection of luciferase-transfected cancer cells in athymic mice under anesthesia using a stereotactic platform. For murine model for CNS lymphoma, 1×10^5 OCI-LY10 B lymphoma cells were used. For murine model for metastatic breast cancer of the brain (MBCB), 1×10^5 MB-468 triple-negative breast cancer cells were used. For murine model for glioblastoma multiforme (GBM), 1.75×10^5 U87 cells were used. Eight-week-old athymic mice underwent a minimum 7-day acclimation/quarantine prior to surgery. Surgery was performed in a laminar flow hood under sterile conditions. Tylenol 300 mg/kg PO was given for analgesia 48 hours before the surgery and continuing 48 hours postoperatively. Anesthesia was achieved by inhalation of 1-2% isoflurane. After the mouse became well anesthetized, it was placed in the Kopf stereotactic instrument. A small amount of BNP antibiotic cream (a mixture of Bacitracin, Neomycin and Polymyxin) was smeared on its eyes to prevent infection and corneal damage during surgery. A strip of soft fabric was placed over the mouse's body and tail to prevent excessive heat loss during surgery. The scalp area was cleaned with a 2% solution of Betadine and dried with cotton tipped applicator. A midline sagittal incision was made in the scalp. A small burr hole was drilled in the left skull with a surgical drill (Kopf) or a Dremel drill according to the coordinates (AP: 0.5 mm, LM: 2.5 mm) as determined by reference to the mouse brain atlas by Franklin and Paxinos. The dura mater was surgically exposed, and a 10 μl Hamilton syringe with a 26S-gauge beveled needle was lowered into the left cerebral hemisphere up to a depth of 3 mm and 5 μl of tumor cells were slowly infused (0.5 μl/min). The needle was left in place for 5 minutes to prevent reflux and then was slowly removed. The skin was closed with wound clips. The mice recovered from anesthesia and surgery in a warm environment and were not returned to their cages until motor activity returned. Cages were placed on top of a heating pad to minimize the loss of body heat during the recovery. The mice were monitored post-operatively at least twice a day for 5 days or until recovery was complete.
(§3) BLI was used to assess the impact of the treatments on the brain tumor growth. After intracerebral injection of cancer cells, all the mice were subjected to bioluminesence imaging (BLI) twice a week starting at day-4 post-intracerebral injection to monitor the real-time in vivo tumor growth. BLI was conducted using a Xenogen Lumina optical imaging system (Caliper Life Sciences, Hopkinton, Mass.). Mice were anesthetized with isofluorane before intraperitoneal injections of luciferin at a dose of 150 mg/kg, providing a saturating substrate concentration for luciferase enzyme. Peak luminescent signals were recorded 10 minutes after luciferin injection. Regions of interest encompassing the intracranial area of signal were defined using Living Image software (Xenogen, Alameda, Calif.), and the total photons/s/steradian/cm2 was recorded.
(§4) Five mice each were assigned to one of seven treatment groups or one vehicle control group for all three brain tumor models. Mice in experimental groups received either 2.5 mg/kg or 5 mg/kg of AA, CEAA, or DCEAA by intraperitoneal route daily for 4 days. For CAA, only 2.5 mg/Kg by intraperitoneal route daily for 4 days was used. The control group received DMSO by intraperitoneal route for 4 days. The end point for the survival analysis was the development of limb paralysis. Animals were checked at least twice per day. Animals that reached the end point were sacrificed by CO2 anesthesia. […]

Raji lymphoma cells [2] = assay: Intracerebral dissemination of lymphoma cells (CD20 IHC); assay type: in vivo, athymic mice
From the text: Paraffin sections (10 μm thick) were fixed and mounted onto glass slides, blocked, and immunostained with antibody to CD20 to identify B lymphoma cells.
Murine brains harvested from the in-vivo experiments to assess the pre-clinical therapeutic activity of AA were studied by IHC. CD20-positive lymphoma cells were counted in the cerebral hemisphere contralateral to the tumor implantation side for dissemination in lateral, anterior, and posterior directions by ScanScope XT slide scanner and image analysis system (Aperio Spectrum, Vista, Calif.). One-way ANOVA was used to determine the statistical significance of the difference between the treated group and untreated control group.

OCI-LY10 = assay: Cell proliferation assay OCI-LY10 (Example 6); assay type: cell-based; conditions: cells counted on the sixth day
Experimental: (§5) In-vitro assays were performed to assess the cytotoxic impact of AA analogues on breast cancer cell lines (MB-468, MB-453, and T47D), lymphoma cell lines (Raji and OCI-LY10), and glioblastoma multiforme cell line (U87). The three breast cancer cell lines represent three subtypes of breast cancer: triple-negative (MB-468), Her2-positive (MB-453), and hormone receptor positive (T47D).
(§6) The IC50 values obtained for each compound represents the concentration of the tested compound that is needed to decrease the cancer cell count by 50%. Cancer cells were seeded in triplicate at 50,000 cells per well of a 24-well plate in 0.5 ml medium. […] Cells were harvested and counted on the sixth day using a Beckman Coulter counter.

Raji lymphoma cells [3] = assay: Cell proliferation assay, Raji lymphoma cells (Example 3); assay type: cell-based; conditions: 100, 500, or 1,000 nM; counted on the third day; vs vehicle
Experimental: Raji cells were purchased from American Tissue Culture (Manassas, Va.). […] Raji cells infected with lentivirus constructs were grown in selection media containing 2.5 μg/ml puromycin. For experiments, unless specified otherwise, all cells were switched back to maintenance media.
Two-tailed student T-test was used to analyze significant difference.

[4] = system: DU145 prostate cancer cells; assay: Cytotoxicity, MTT method, DU145; conditions: read-out: Cytotoxicity (IC50, μM) DU145; MTT, 24 h incubation
Experimental: The cell suspension in the culture medium was plated into each well of 96-well plates (10,000 cells/well/100 μL). After 24 h, testing compounds were added, and then the plates were incubated for an additional 24 h in a humidified atmosphere of 5% CO2 at 37° C. […] The IC50 value was determined by linear interpolation from the growth inhibition curve.

U87 cells = assay: U87 orthotopic murine model for glioblastoma multiforme; assay type: in vivo; conditions: for Median Survival (Day) GBM (U-87): control 25.5
Experimental: as §1, §2, §3, §4

MB-453 = assay: Cell proliferation assay MB-453 (Example 6); assay type: cell-based; conditions: cells counted on the sixth day
Experimental: as §5, §6

T47D = assay: Cell proliferation assay T47D (Example 6); assay type: cell-based; conditions: cells counted on the sixth day
Experimental: as §5, §6

MB-468 = assay: Cell proliferation assay MB-468 (Example 6); assay type: cell-based; conditions: cells counted on the sixth day
Experimental: as §5, §6

[5] = system: OCI-LY10 B lymphoma cells; assay: OCI-LY10 orthotopic murine CNS lymphoma model; assay type: in vivo; conditions: for Median Survival (Day) CNS Lymphoma (OCI-LY10): control 35
Experimental: as §1, §2, §3, §4

[6] = 2.5 mg/kg intraperitoneal daily for 4 days
[7] = 5 mg/kg intraperitoneal daily for 4 days
[8] = all treatment groups (2.5 or 5 mg/kg i.p. daily for 4 days)

CN1C(=O)N[C@H]2[C@@H]3NC(=O)c4ccc(Br)n4[C@@H]3C[C@]21O [AA, agelastatin A, reference compound]
Median Survival (Day) Breast Cancer (MB-468) [1, 6]: 57 days
weight loss, MB-468 model ([1]; 5 mg/kg dose level): Some weight loss
Median Survival (Day) Breast Cancer (MB-468) [1, 7]: 60.5 days
survival (Kaplan-Meier) vs control, MB-468 model [1, 8]: significantly prolonged survival; also recorded: prolongation of survival
tumor growth (BLI) vs control, MB-468 model [1, 8]: significantly decreased tumor growth; also recorded: significantly slower
lateral dissemination of lymphoma cells (Raji lymphoma cells [2]; T2 (2.5 mg/kg i.p.) and T3 (5 mg/kg i.p.) groups): decreased lateral dissemination of lymphoma cells
lymphoma cell dissemination in the anterior and posterior direction (Raji lymphoma cells [2]; all the treatment groups (1, 2.5, 5 mg/kg i.p.)): Dissemination of lymphoma cells was decreased
dissemination of lymphoma cells in the brain (Raji lymphoma cells [2]; contralateral brain hemisphere, CD20 IHC): significantly decreased dissemination of lymphoma cells in the brain; also recorded: decreases the dissemination of Raji lymphoma cells inside the brain
IC50 (OCI-LY10): 162 nM
Raji lymphoma cell proliferation (Raji lymphoma cells [3]): significantly suppressed proliferation; also recorded: decreases Raji lymphoma cell proliferation
IC50 [4]: 2.3 µM
Median Survival (Day) GBM (U-87) (U87 cells; [6]): 28 days
weight loss, U87 model (U87 cells; 5 mg/kg dose level): Some weight loss
Median Survival (Day) GBM (U-87) (U87 cells; [7]): 30 days
survival (Kaplan-Meier) vs control, U87 model (U87 cells; [8]): significantly prolonged survival; also recorded: prolongation of survival
tumor growth (BLI) vs control, U87 model (U87 cells; [8]): significantly decreased tumor growth; also recorded: significantly slower
IC50 (MB-453): 644 nM
IC50 (T47D): 55.1 nM
IC50 (MB-468): 2800 nM
Median Survival (Day) CNS Lymphoma (OCI-LY10) [5, 6]: 48.5 days
weight loss, OCI-LY10 model ([5]; 5 mg/kg dose level): Some weight loss
Median Survival (Day) CNS Lymphoma (OCI-LY10) [5, 7]: 46 days
survival (Kaplan-Meier) vs control, OCI-LY10 model [5, 8]: significantly prolonged survival; also recorded: prolongation of survival
tumor growth (BLI) vs control, OCI-LY10 model [5, 8]: significantly decreased tumor growth; also recorded: significantly slower
